Results reported in patent publication US20250019385A1, “SPIROCYCLIC ANNULATED 2-AMINO-3-CYANO THIOPHENES AND DERIVATIVES FOR THE TREATMENT OF CANCER” (Boehringer Ingelheim International GmbH, priority 2023, published 2025).
Values after ≈ are worked out from the molar mass of the structure shown. Like-named read-outs stand apart in the source and are kept apart here.

What was measured:
Ba/F3 cells KRAS G12V = assay: Ba/F3 proliferation assay (KRAS G12V); assay type: cell-based; conditions: Mus musculus, BaF3, 72 h, AlamarBlue viability
Experimental: Ba/F3 cells are ordered from DSMZ (ACC300, Lot17) and grown in RPMI-1640 (ATCC 30-2001)+10% FCS+10 ng/mL IL-3 at 37° C. in 5% […] atmosphere. Plasmids containing KRASG12 mutants (i.e. […], G12C, G12V) are obtained from GeneScript. To generate KRASG12-dependent Ba/F3 models, Ba/F3 cells are transduced with retroviruses containing vectors that harbor KRASG12 isoforms. Platinum-E cells (Cell Biolabs) are used for retrovirus packaging. Retrovirus is added to Ba/F3 cells. To ensure infection, 4 μg/mL polybrene is added and cells are spinfected. Infection efficiency is confirmed by measuring GFP-positive cells using a cell analyzer. Cells with an infection efficiency of 10% to 20% are further cultivated and puromycin selection with 1 μg/mL is initiated. As a control, parental Ba/F3 cells are used to show selection status. Selection is considered successful when parental Ba/F3 cells cultures died. To evaluate the transforming potential of KRASG12 mutations, the growth medium is no longer supplemented with IL-3. Ba/F3 cells harboring the empty vector are used as a control. Approximately ten days before conducting the experiments, puromycin is left out.
For proliferation assays, Ba/F3 cells are seeded into 384-well plates at 1.5×1 (M cells/60 μL in growth media (RPMI-1640+10% FCS). Compounds (10 mM stock in DMSO) are added at logarithmic dose series using the ECHO acoustic liquid handler system (Beckman Coulter), normalizing for added DMSO and including DMSO controls. All compound treatments are performed in technical duplicates. For the TO time point measurement, untreated cells are analyzed at the time of compound addition. Treated cells are incubated for 72 h at 37° C. with 5% CO2 and cell viability is measured in the PerkinElmer Envision Multimode Reader using AlamarBlue™ (ThermoFisher) viability stain. Viability (stated as percent of control) is defined as relative fluorescence units RFU of each well divided by the RFU of cells in DMSO controls. IC50 values are determined from viability measurements by non-linear regression using a four-parameter model.

NCI-H727 cells = assay: NCI-H727 CTG proliferation assay (120 h) (lung cancer, G12V); assay type: cell-based; conditions: Homo sapiens
Experimental: (§1) NCI-H727 cells (ATCC No. CRL-5815) are dispensed into black 384-well plates, flat and clear bottom (Greiner, PNr. 781091) at a density of 500 cells per well in 60 μl RPMI ATCC-Formulation (PAN P04-18047)+10% FCS (fetal calf serum, HyClone, SH30084.03). Cells are incubated overnight at 37° C. in a humidified tissue culture incubator at 5% CO2. Compounds (10 mM stock in DMSO) are added at logarithmic dose series using the ECHO acoustic liquid handler system (Beckman Coulter), normalizing for added DMSO and including DMSO controls. All compound treatments are performed in technical duplicates. For the TO time point measurement, untreated cells are analyzed at the time of compound addition. Plates are incubated for 120 h, and cell viability is measured using CellTiter-Glo luminescent cell viability reagent (Promega product code G7570). Viability (stated as percent of control) is defined as relative luminescence units RLU of each well divided by the RLU of cells in DMSO controls. IC50 values are determined from viability measurements by non-linear regression using a four-parameter model.
(§2) IC50 values of representative compounds according to the invention measured with these assays in the indicated cell lines are presented in Table 46.

NCI-H358 cells = assay: NCI-H358 CTG proliferation assay (120 h) (NSCLC, G12C); assay type: cell-based; conditions: Homo sapiens
Experimental: as §1, with “NCI-H358” for “NCI-H727”, “CRL-5807)” for “CRL-5815)”, “200” for “500”, “RPMI-1640” for “RPMI”, “(Gibco #A10491)+10%” for “(PAN P04-18047)+10%”, “serum).” for “serum, HyClone, SH30084.03).”
as §2

[1] = Solubility measurement (DMSO solution precipitation method); assay type: physicochemical; conditions: aqueous buffer, kinetic from dmso stock
Experimental: A 10 mM DMSO stock solution of a test compound is used to determine its aq. solubility. The DMSO solution is diluted with an aq. medium (McIlvaine buffer with pH=4.5 or 6.8) to a final concentration of 250 μM. After 24 h of shaking at ambient temperature a potentially formed precipitate is removed by filtration. The concentration of the test compound in the filtrate is determined by LC-UV methods by calibrating the signal to the signal of a reference solution with complete dissolution of the test compound in acetonitrile/water (1:1) with known concentration.

[2] = McIlvaine buffer pH 4.5, 24 h, read-out: solubility pH 4.5
[3] = McIlvaine buffer pH 6.8, 24 h, read-out: solubility pH 6.8

IC50 (Ba/F3 cells KRAS G12V)	IC50 (NCI-H727 cells)	IC50 (NCI-H358 cells)	solubility at 24 h [1, 2]	solubility at 24 h [1, 3]	Structure (SMILES)
16 nM	13 nM	9 nM	> 148 µg/mL	> 131 µg/mL	C[C@H](Oc1nc(-c2onc3c2CCC[C@@]32CCCc3sc(N)c(C#N)c32)nc2c1[nH]c(=O)n2[C@@H]1CCCOC1)[C@@H]1CCCN1C [I-13]
2 nM	6 nM	9 nM	> 163 µg/mL	< 1 µg/mL	CO[C@@H]1C[C@@H]([C@H](C)Oc2nc(-c3onc4c3CCC[C@@]43CCCc4sc(N)c(C#N)c43)nc3c2n(C)c(=O)n3[C@@H]2CCCOC2)N(C)C1 [I-14]
11 nM	14 nM	11 nM	> 150 µg/mL	> 153 µg/mL	C[C@H](Oc1nc(-c2onc3c2CCC[C@@]32CCCc3sc(N)c(C#N)c32)nc2c1n(C)c(=O)n2C12COC(C1)C2)[C@@H]1CCCN1C [I-15]
226 nM	152 nM	141 nM	> 154 µg/mL	> 138 µg/mL	CO[C@H]1C[C@H](n2c(=O)n(C)c3c(O[C@@H](C)[C@@H]4CCCN4C)nc(-c4onc5c4CCC[C@@]54CCCc5sc(N)c(C#N)c54)nc32)C1 [I-16]
20 nM	48 nM	20 nM	> 155 µg/mL	> 148 µg/mL	C[C@H](Oc1nc(-c2onc3c2CCC[C@@]32CCCc3sc(N)c(C#N)c32)nc2c1n(C)c(=O)n2[C@H]1CC2CCC1O2)[C@@H]1CCCN1C (some centres unmarked) [I-17]
69 nM	170 nM	239 nM	> 151 µg/mL	97 µg/mL (≈ 148 µM)	C[C@H](Oc1nc(-c2onc3c2CCC[C@@]32CCCc3sc(N)c(C#N)c32)nc2c1n(C)c(=O)n2[C@@H]1CC2CCC1O2)[C@@H]1CCCN1C (some centres unmarked) [I-18]
243 nM	116 nM	201 nM	> 152 µg/mL	> 146 µg/mL	C[C@H](Oc1nc(-c2onc3c2CCC[C@@]32CCCc3sc(N)c(C#N)c32)nc2c1n(C)c(=O)n2[C@H]1CCC[C@@H]1O)[C@@H]1CCCN1C [I-19]
2 nM	2 nM	4 nM	> 151 µg/mL	> 154 µg/mL	C[C@H](Oc1nc(-c2onc3c2CCC[C@@]32CCCc3sc(N)c(C#N)c32)nc2c1n(C)c(=O)n2[C@@H]1CCOC1)[C@@H]1CCCN1C [I-20]
5 nM	4 nM	3 nM	> 157 µg/mL	> 144 µg/mL	CCn1c(=O)n([C@@H]2CCOC2)c2nc(-c3onc4c3CCC[C@@]43CCCc4sc(N)c(C#N)c43)nc(O[C@@H](C)[C@@H]3CCCN3C)c21 [I-21]
4 nM	6 nM	7 nM	> 154 µg/mL	12 µg/mL (≈ 18.5 µM)	C[C@H](Oc1nc(-c2onc3c2CCC[C@@]32CCCc3sc(N)c(C#N)c32)nc2c1n(C)c(=O)n2[C@@H]1CCOC1)[C@@H]1C[C@@H](F)CN1C [I-22]
2 nM	3 nM	4 nM	> 157 µg/mL	36 µg/mL (≈ 54.5 µM)	CO[C@H]1CCN(C)[C@@H]1[C@H](C)Oc1nc(-c2onc3c2CCC[C@@]32CCCc3sc(N)c(C#N)c32)nc2c1n(C)c(=O)n2[C@@H]1CCOC1 [I-23]
26 nM	35 nM	93 nM	> 155 µg/mL	> 140 µg/mL	C[C@H](Oc1nc(-c2onc3c2CCC[C@@]32CCCc3sc(N)c(C#N)c32)nc2c1n(C)c(=O)n2C1COC1)[C@@H]1CCCN1C [I-24]
7 nM	9 nM	6 nM	> 155 µg/mL	> 154 µg/mL	C[C@H](Oc1nc(-c2onc3c2CCC[C@@]32CCCc3sc(N)c(C#N)c32)nc2c1n(C)c(=O)n2[C@@H]1CCOC1)C12CCCN1CCC2 [I-25]
2 nM	4 nM	7 nM	> 158 µg/mL	127 µg/mL (≈ 197 µM)	C[C@H](Oc1nc(-c2onc3c2CCC[C@@]32CCCc3sc(N)c(C#N)c32)nc2c1n(C)c(=O)n2[C@@H]1CCOC1)[C@@H]1CC[C@H](C)N1C [I-26]
13 nM	21 nM	39 nM	> 153 µg/mL	9 µg/mL (≈ 13.9 µM)	C[C@H](Oc1nc(-c2onc3c2CCC[C@@]32CCCc3sc(N)c(C#N)c32)nc2c1n(C)c(=O)n2[C@@H]1CCOC1)[C@@H]1C[C@H](F)CN1C [I-27]
12 nM	27 nM	55 nM	> 166 µg/mL	16 µg/mL (≈ 24.9 µM)	C[C@H](Oc1nc(-c2onc3c2CCC[C@@]32CCCc3sc(N)c(C#N)c32)nc2c1n(C)c(=O)n2[C@@H]1CCOC1)[C@@H]1C[C@@H]2C[C@@H]2N1C [I-28]
1 nM	1 nM	2 nM	> 161 µg/mL	> 165 µg/mL	C[C@H](Oc1nc(-c2onc3c2CCC[C@@]32CCCc3sc(N)c(C#N)c32)nc2c1n(C)c(=O)n2[C@@]12COC[C@@H]1C2)[C@@H]1CCCN1C [I-29]
5 nM	6 nM	7 nM	> 154 µg/mL	88 µg/mL (≈ 134 µM)	CCn1c(=O)n([C@@H]2CCCOC2)c2nc(-c3onc4c3CCC[C@@]43CCCc4sc(N)c(C#N)c43)nc(O[C@@H](C)[C@@H]3CCCN3C)c21 [I-30]
23 nM	38 nM	60 nM	> 158 µg/mL	> 148 µg/mL	CO[C@H]1C[C@@H](n2c(=O)n(C)c3c(O[C@@H](C)[C@@H]4CCCN4C)nc(-c4onc5c4CCC[C@@]54CCCc5sc(N)c(C#N)c54)nc32)C1 [I-31]
13 nM	4 nM	32 nM	> 155 µg/mL	63 µg/mL (≈ 95.6 µM)	CC(C)n1c(=O)n([C@@H]2CCOC2)c2nc(-c3onc4c3CCC[C@@]43CCCc4sc(N)c(C#N)c43)nc(O[C@@H](C)[C@@H]3CCCN3C)c21 [I-32]
739 nM	899 nM	921 nM	> 163 µg/mL	8 µg/mL (≈ 11.6 µM)	CCn1c(=O)n([C@@H]2CCCOC2)c2nc(-c3onc4c3CCC[C@@]43CCCc4sc(N)c(C#N)c43)nc(OC[C@@]34CCCN3C[C@H](F)C4)c21 [I-33]
553 nM	282 nM	475 nM	> 158 µg/mL	> 148 µg/mL	CCn1c(=O)n([C@@H]2CCCOC2)c2nc(-c3onc4c3CCC[C@@]43CCCc4sc(N)c(C#N)c43)nc(OCC34CCCN3CCC4)c21 [I-34]
